The values that follow come from US9976183B2, “Biomarkers for cancers responsive to modulators of HEC1 activity” (TAIVEX THERAPEUTICS CORPORATION, priority 2011, dated 2018).

Molecules are shown by their SMILES.

Common to all, as to assay type: cell-based
Assay [1] deals with Huh7. Kind of assay: Drug sensitivity, MTS cell viability assay (GI50). As for the experimental part:
(§1) Drug sensitivity: Cell lines were screened for drug sensitivity by treatment with specified drugs 24 hours after seeding in appropriate seeding numbers into 96 well plates containing low glucose DME with 10% FBS. The drug was added to the plate in triplicate wells, and the cells are incubated in drug treated medium for 96 hours before cell viability was determined by MTS assay using CellTiter 96® Aqueous non-radioactive cell proliferation assay system (Promega, Madison, Wis. 53711 USA). The MTS assay was performed according to the manufacturer's instructions. Optical density was measured using a Bio-Tek 340 spectrophotometer (Bio-Tek, Winooski, Vt. 05404) and optical readings were then processed in Excel (Microsoft, Redmond, Wash. 98052-7329) and GraphPad Prism 5 linear regression software (GraphPad Software, La Jolla, Calif. 92037 USA) to determine concentration-response curves for calculating relative GI50s. […] The % growth inhibition of the test drug on cells were calculated as: [1−(Test Value)/(Control Value)]×100; these values were used to plot concentration-response curves, and then analyzed with linear regression software.

The subject of another assay is NCI/ADR-RES. Kind of assay: Drug sensitivity, MTS assay, drug resistant cell line. The conditions noted are these: Homo sapiens, multi-drug resistant uterine sarcoma. As for the experimental part: as §1
A further assay deals with K562R. The description is as above. Particulars: Homo sapiens, K-562R, Gleevec resistant myelogenous leukemia. As for the experimental part: as §1
Another assay deals with MEX-SA/Dx5. The description is as above. The conditions noted are these: MEX-SA/Dx5, multi-drug resistant uterine sarcoma. As for the experimental part: as §1
Assay [2] concerns Hep3B. Description: Synergy of Hec1 inhibitor with cytotoxic drug (combination index, MTS). Also noted: key to Combination Index: CI = (CA,X/ICx,A)+(CB,X/ICx,B) at x% drug effect. As for the experimental part:
(§2) Synergy: GI50s for selected drugs were determined and used to calculate a concentration ratio for use synergy assays with Hec1 inhibitors. Cells were treated with drugs 24 hours after being seeded in appropriate seeding numbers into 96 well plates containing low glucose DME with 10% FBS. […] Cell viability was determined by MTS assay using a CellTiter 96® Aqueous non-radioactive cell proliferation assay system (Promega, Madison, Wis. 53711 USA) according to the manufacturer's instructions. Optical density was determined using a Bio-Tek 340 spectrophotometer (Bio-Tek, Winooski, Vt. 05404) and were then processed using Excel (Microsoft, Redmond, Wash. 98052-7329) and GraphPad Prism 5 linear regression software (GraphPad Software, La Jolla, Calif. 92037 USA) to determine concentration-response curves for calculating relative GI50s. Synergy was determined by calculating a combination index value using the formula CI (combination index)=(CA,X/ICx,A)+(CB,X/ICx,B), where CA,X and CB,X are the concentrations of drug A and drug B used in combination to achieve x % drug effect. ICx,A and ICx,B are the concentrations for single agents to achieve the same effect.
(§3) Hec1 inhibitor-responsive cancer cells used for screening were treated with a mixture of Hec1 inhibitor and select anti-cancer drug at appropriate concentration ratios and evaluated for cell viability.

In assay [3] the test system is Huh7. The assay is described as above. Further details: key to Combination Index: CI = (CA,X/ICx,A)+(CB,X/ICx,B) at x% drug effect. As for the experimental part:
as §2, §3

Assay [4] deals with HepG2. The description is as above. Further details: key: CI = (CA,X/ICx,A)+(CB,X/ICx,B) at x% drug effect. As for the experimental part: as §2, §3
Another assay concerns PCL/PRF/5. The assay is described as above. Also noted: key: CI = (CA,X/ICx,A)+(CB,X/ICx,B) at x% drug effect. As for the experimental part: as §2, §3
Assay [5] relates to HeLa. Described as above. As for the experimental part: as §2, §3
The next assay deals with MB-468. The description is as above. As for the experimental part: as §2, §3
The next assay relates to MB-231. Described as above. As for the experimental part: as §2, §3
Assay [6] concerns K562. Described as above. As for the experimental part:
as §2, §3

For assay [7], the system named is HeLa. Kind of assay: Drug sensitivity, MTS cell viability assay (GI50). The conditions noted are these: Homo sapiens, 96 hours. As for the experimental part:
as §1

The test system of the next assay is T47D. Description: Drug sensitivity, MTS cell viability assay (GI50). Particulars: Homo sapiens, 96 hours. As for the experimental part:
as §1

The test system of assay [8] is HepG2. Description: Drug sensitivity, MTS cell viability assay (GI50). The conditions noted are these: Homo sapiens; for GI50: HepG2, 96 hours, MTS. As for the experimental part:
as §1

A further assay concerns MDA-MB-453. Kind of assay: Drug sensitivity, MTS cell viability assay (GI50). The conditions noted are these: Homo sapiens, MDA-MB-453, 96 hours. As for the experimental part:
as §1

Another assay has as its system Hs578T. Description: Drug sensitivity, MTS cell viability assay (GI50). Particulars: Homo sapiens, Hs-578T, 96 hours. As for the experimental part:
as §1

Assay [9] deals with Hep3B. Description: Drug sensitivity, MTS cell viability assay (GI50). Particulars: Homo sapiens, 96 h. As for the experimental part: as §1
A further assay has as its system PLC/PRF/5. Kind of assay: Drug sensitivity, MTS cell viability assay (GI50). Particulars: Homo sapiens, PLC/PRF/5, 96 hours. As for the experimental part: as §1
Assay [10] deals with K562. Kind of assay: Drug sensitivity, MTS cell viability assay (GI50). The conditions noted are these: Homo sapiens, K562, 96 h. As for the experimental part:
as §1

For another assay, the system named is ZR-75-1. Kind of assay: Drug sensitivity, MTS cell viability assay (GI50). The conditions noted are these: Homo sapiens, ZR-75-1, 96 hours. As for the experimental part:
as §1

The next assay deals with MDA-MB-468. Description: Drug sensitivity, MTS cell viability assay (GI50). As for the experimental part: as §1
A further assay has as its system MDA-MB-231. Kind of assay: Drug sensitivity, MTS cell viability assay (GI50). As for the experimental part:
as §1

Where [11] appears, read: in combination with doxorubicin.
[12] abbreviates: in combination with Taxol (paclitaxel).
[13] abbreviates: Homo sapiens, Huh-7, 96 h, Huh7, 96 hours, MTS.

In the assay on Huh7 [1] (Huh7, 96 hours, MTS), `O=C(Cc1ccc(-c2ccc(OCCN3CCOCC3)cc2)cn1)NCc1ccccc1` [KX01] yielded a GI50 of 27.2 nM.
As for `COc1ccc(Oc2cc(C)c(-c3csc(NC(=O)c4ccnc(F)c4)n3)c(C)c2)cc1` [compound 101015, 2-fluoro-N-(4-(4-(4-methoxyphenoxy)-2,6-dimethylphenyl)thiazol-2-yl)isonicotinamide], the results for the 50% growth inhibitory concentration (GI50) with NCI/ADR-RES, with K562R and in the assay on MEX-SA/Dx5 were 21.6 nM, 26 nM and 34.9 nM, respectively. In addition, the “Combination Index” value with Hep3B [2] (in combination with KX01) amounted to 2.32; with Hep3B [2] (in combination with Taxol) it was 2.38; with Hep3B [2] (setting [11]), 2.00; in the assay with Hep3B [2] (in combination with sorafenib), 1.91; with Hep3B [2] (in combination with topotecan) it was 1.05; in the assay with Huh7 [3] (in combination with KX01 (KXO1)), 1.08. Moreover, the “Combination Index” value in the assay on Huh7 [3] (setting [12]) was found to be 0.32; in the assay on Huh7 [3] (setting [11]), 0.54; with Huh7 [3] (in combination with sorafenib), 1.08; with Huh7 [3] (in combination with topotecan), 0.62; in the assay with HepG2 [4] (in combination with KX01), 1.68; with HepG2 [4] (setting [11]), 1.74. The “Combination Index” value is 0.89 in the assay on HepG2 [4] (in combination with sorafenib); 1.92 in the assay with HepG2 [4] (in combination with topotecan); 1.31 in the assay on PCL/PRF/5 (in combination with KX01); 0.99 in the assay on PCL/PRF/5 (in combination with Taxol); 1.65 in the assay with PCL/PRF/5 (setting [11]); 1.15 in the assay on PCL/PRF/5 (in combination with sorafenib). For the same compound, the “Combination Index” value in the assay on PCL/PRF/5 (in combination with topotecan) is 1.17; in the assay with HeLa [5] (in combination with Taxol), 1.01; in the assay with HeLa [5] (setting [11]), 6.83; in the assay with HeLa [5] (in combination with topotecan), 1.58; in the assay with MB-468 (in combination with Taxol), 1.16; with MB-468 (setting [11]) it was 1.23. The “Combination Index” value is on record as 0.74 in the assay on MB-468 (in combination with topotecan); 0.98 in the assay on MB-231 (setting [12]); 1.75 in the assay on MB-231 (setting [11]); 0.85 with MB-231 (in combination with topotecan); 0.62 in the assay with K562 [6] (setting [12]); 0.62 with K562 [6] (setting [11]). In addition, in the assay with K562 [6] (in combination with topotecan), the “Combination Index” value turned out to be 1.12.
`COc1cccc2c1C(=O)c1c(O)c3c(c(O)c1C2=O)C[C@@](O)(C(=O)CO)C[C@@H]3O[C@H]1C[C@H](N)[C@H](O)[C@H](C)O1` [doxorubicin]: the 50% growth inhibitory concentration (GI50) worked out at 242 nM in the assay with HeLa [7]; 11.9 nM in the assay on T47D; 0.746 µM with HepG2 [8]; 158 nM in the assay with MDA-MB-453; 711 nM in the assay on Hs578T; 248 nM in the assay with Hep3B [9]. Also, the concentration for 50% growth inhibition (GI50) in the assay with Huh7 [1] (setting [13]) came out at 183 nM; in the assay with Huh7 [1] (Homo sapiens, Huh-7, Huh7, unit inferred), 183 nM; with PLC/PRF/5, 69.7 nM; in the assay on K562 [10], 36.2 nM; in the assay on ZR-75-1, 0.0929 µM; in the assay on MDA-MB-468 (Homo sapiens, MDA-MB-468, 96 h), 28.3 nM. The same compound displayed a GI50 in the assay on MDA-MB-468 (MDA-MB-468, 96 hours) of 27 nM.
For `CC(=O)O[C@H]1C(=O)[C@@]2(C)[C@H]([C@H](OC(=O)c3ccccc3)[C@]3(O)C[C@H](OC(=O)[C@H](O)[C@@H](NC(=O)c4ccccc4)c4ccccc4)C(C)=C1C3(C)C)[C@]1(OC(C)=O)CO[C@@H]1C[C@@H]2O` [paclitaxel], the concentration for 50% growth inhibition (GI50) in the assay on HeLa [7] is 7.8 nM; in the assay on MDA-MB-231 (Homo sapiens, MDA-MB-231, 96 h) it was 3 nM; in the assay on MDA-MB-231 (MDA-MB-231, 96 hours), 4.91 nM; with T47D, 3.19 nM; in the assay on HepG2 [8] (bound given in μM), over 50 µM; in the assay with MDA-MB-453 it was 1.42 nM. Besides, the GI50 in the assay with Hs578T is 8.39 nM; in the assay with Hep3B [9], 9.47 nM; in the assay on Huh7 [1] (Huh7, 96 hours, MTS) it was 93.5 nM; in the assay with PLC/PRF/5, 8.58 nM; with ZR-75-1 (bound given in μM), over 10 µM; in the assay on MDA-MB-468 (Homo sapiens, MDA-MB-468, 96 h), 2.38 nM. Besides, the GI50 in the assay with NCI/ADR-RES stood at 2330 nM; with K562R, 34.5 nM; with MEX-SA/Dx5 it was 6250 nM. The compound further yielded a concentration for half-maximal inhibition (IC50) with HepG2 [8] (HepG2, Taxol-resistant) of over 10000 nM.
As to `CNC(=O)c1cc(Oc2ccc(NC(=O)Nc3ccc(Cl)c(C(F)(F)F)c3)cc2)ccn1` [sorafenib], the GI50 in the assay on MDA-MB-231 (Homo sapiens, MDA-MB-231, 96 h) came to 3040 nM; in the assay with T47D, 1730 nM; with HepG2 [8], 8.25 µM; with MDA-MB-453 it was 2520 nM; in the assay with Hep3B [9], 3680 nM; in the assay on Huh7 [1] (setting [13]), 4500 nM. Also, the GI50 stood at 3760 nM in the assay with PLC/PRF/5; 4.34 µM in the assay on ZR-75-1; 3170 nM in the assay on MDA-MB-468 (Homo sapiens, MDA-MB-468, 96 h).
`CC[C@@]1(O)C(=O)OCc2c1cc1n(c2=O)Cc2cc3c(CN(C)C)c(O)ccc3nc2-1` [topotecan]: the GI50 in the assay on HeLa [7] was determined as 637 nM; in the assay on MDA-MB-231 (Homo sapiens, MDA-MB-231, 96 h), 347 nM; in the assay with T47D it was 9.43 nM; in the assay with HepG2 [8], 0.435 µM; in the assay with MDA-MB-453, 92.3 nM; in the assay on Hs578T, 4960 nM. Moreover, the GI50 with Hep3B [9] was 422 nM; in the assay with Huh7 [1] (Huh7, 96 hours, MTS) it was 50.9 nM; in the assay with PLC/PRF/5, 174 nM; with K562 [10] it was 36.1 nM; with ZR-75-1 it was 0.0363 µM; with MDA-MB-468 (Homo sapiens, MDA-MB-468, 96 h), 10.7 nM.
